Data reported in patent US9377453B2, “Systems and methods for detection of cellular stress” (RAMOT AT TEL AVIV UNIVERSITY LTD., priority 2010, dated 2016).
“Also recorded” adds a separate entry of the source.

Test system: CHO cells
Experiment: Subcellular localization of Cy3-labeled tRNA in CHO cells treated with puromycin
Type: cell-based, Chinese hamster
Details: puromycin 1 mM, 0.5 h, 7 h post transfection; treated vs untreated CHO cells
Description: Chinese hamster ovary cells (CHO-Ki) were maintained in nutrient mixture F-12 (Ham) supplemented with 10% (v/v) fetal calf serum, 5 mM L-glutamine and antibiotics (all from Biological Industries).
Transfection—Cells were seeded in the day preceding the transfection (1.5×10^5 cells, 12 mm coverslips, in 24-well plates). Transfection was with 3 μg of yeast labeled-bulk tRNA (Interferin™, polyplus-transfection, according to manufacture's instructions). For DNA transfection (pSuper-retro-GFP), 9×10^4 cells/well were transfected with 1 μg DNA (TransIT-LT1 transfection reagent, according to manufacture's protocol). The following day, cells were re-transfected with labeled tRNA as described above.
Quantitative image analysis—For quantitative analysis of spatial distribution of the labeled tRNA and additional cellular markers, the entire cell volume was imaged by spinning disk confocal microscopy (0.15 μm between planes of the z-stack) with a 100× lens and 1×1 “on chip binning” yielding a pixel size of 100×100 nm; and deconvolved with the constrained iterative algorithm of Slidebook™ which employs an experimentally measured point spread function (PSF). […]

With `COc1ccc(C[C@H](N)C(=O)N[C@H]2[C@@H](O)[C@H](n3cnc4c(N(C)C)ncnc43)O[C@@H]2CO)cc1` [puromycin] the “Nuclear localization of labeled tRNA (tRNA signal co-localizing with Hoechst signal)” value was “marked accumulation of tRNA in the nucleus; also recorded: increase in nuclear localization of labeled tRNA”.
